# Legend:
# [1] = test system: natural pigmentation of the tail of an SKH:HR2 mouse; assay: Depigmenting activity on natural pigmentation, tail of non-irradiated SKH:HR2 mouse, 8 weeks; format: in vivo; conditions: topical in acetone 5 days a week for 8 weeks, 3% hydroquinone, 0.1% adapalene, alone or in combination
# Protocol: The evaluation of the depigmenting and/or anti-pigmenting activity of 3% hydroquinone and of 0.1% adapalene, alone or in combination for 8 weeks, is carried out on the tail of an SKH:HR2 mouse irradiated with ultraviolet B radiation, or not irradiated.
# The treatment is carried out 5 days a week for 8 weeks. 20 μl of test product diluted in acetone are applied to the tail with a gap from applications: the hydroquinone is applied in the morning and the adapalene 4 h later.
# −1: slight depigmentation
# −2: moderate depigmentation
# −3: marked depigmentation
# −4: complete depigmentation
# [2] = test system: UV-induced pigmentation of the tail of an SKH:HR2 mouse; conditions: UV-B 90 mJ/cm^2 3 times a week; topical in acetone 5 days a week for 8 weeks; 3% hydroquinone, 0.1% adapalene
# Protocol: The tail of the SKH:HR2 mouse is naturally pigmented and this pigmentation increases under the effect of repeated UV-B irradiation. The depigmenting activity is measured on the natural pigmentation after application of the test product to the tail of non-irradiated animals. The anti-pigmenting activity is measured by the inhibition of the induction of the UV-induced pigmentation: the test product is applied to the tail of UV-B-irradiated animals.
# The treatment is carried out 5 days a week for 8 weeks. […] On the days of irradiation, the treatment is applied after irradiation.
# The animals are irradiated 3 times a week for 8 weeks (Monday, Wednesday, Friday) at the dose of 90 mJ/cm^2 of UV-B.
# The pigmentation is evaluated once a week before irradiation, by means of a score on a scale of 0 to 4. The scores are divided as follows: Depigmentation scale: scores −1 to −4.
# Pigmentation scale: scores 1 to 4
# tail of a mouse = assay: Inhibition of the induction of pigmentation by UV-B radiation in irradiated and treated mice; format: in vivo; conditions: lower dose (0.01%)
# Source text: Retinoic acid (tretinoin) is known to itself have a skin depigmenting activity (Guevara I. A. and Pandya A. G., Int. J. Dermatol., 40, 210-215 (2001)). […] Tretinoin is therefore a depigmenting agent in and of itself.
SMILES,depigmenting activity (natural pigmentation score) [1],depigmenting activity (natural pigmentation score) ([1]; listed as Adapalene),anti-pigmenting activity (inhibition of pigmentation induced by UV-B irradiation) [2],inhibition of the induction of pigmentation by UV-B radiation (tail of a mouse)
"COc1ccc(-c2ccc3cc(C(=O)O)ccc3c2)cc1C12CC3CC(CC(C3)C1)C2 [adapalene, 6-[3-(1-adamantyl)-4-methoxyphenyl]-2-naphthanoic acid]",no depigmenting activity,does not modify the natural pigmentation,–,–
Oc1ccc(O)cc1 [hydroquinone],induces a depigmentation,–,"shows an anti-pigmenting effect at the 6th and at the 7th week (D50), which becomes less marked at the end of the study",–
"CC1=C(/C=C/C(C)=C/C=C/C(C)=C/C(=O)O)C(C)(C)CCC1 [tretinoin, Retinoic acid]",–,–,–,no effect

# — US20080219936A1, “Skin depigmenting compositions comprising adapalene, at least one depigmenting agent and at least one anti-inflammatory agent” (GALDERMA RESEARCH AND DEVELOPMENT, priority 2005, published 2008)
